Results from US8389534B2, “Pyrimidine non-classical cannabinoid compounds and related methods of use” (The University of Tennessee Research Foundation, priority 2008, dated 2013).

Legend:
[1] = tested on: glioblastoma brain cancer cell line LN-229; experiment: Cytotoxicity assay (CCK8 viability); assay type: cell-based; conditions: Homo sapiens, cytotoxicity against LN-229 cells, 18 hours incubation
Experimental: Cytoxocity assay: Cells were seeded on a 96 well polystyrene plate in full serum media at a density of 75,000 cells per milliliter, 100 μL per well. Plates were incubated at 37° C. and 5% CO2 for 24 hours to allow cell attachment. Drug solutions were prepared in DMSO at 100× concentration and mixed 1:100 in 1% FBS media to yield the desired concentration. Drug-media mixtures were vortexed immediately prior to administration to cells. Full serum media was removed and replaced with drug-media mixtures and incubated for 18 hours. 10 μL of Cell Counting Kit 8 (CCK8, Dojindo# CK04-11) was added to each well to colormetrically assess viability. After 2-4 hours of incubation with the CCK8 dye, absorbance was read at 450 nm by a BioTek Synergy 2 plate reader.
The cytotoxicity of selected compounds against the glioblastoma brain cancer cell line LN-229 is depicted in Table 1.

| melting point | SMILES | EC50 [1] |
| --- | --- | --- |
| 336.6 °C | Oc1nc(Cc2ccccc2)nc(O)c1-c1ccccc1 | – |
| – | CC(C)(c1nc(O)c(-c2cc(Cl)cc(Cl)c2)c(O)n1)C1CCCCC1 [Compound 8g, 2-(2-Cyclohexylpropan-2-yl)-5-(3,5-dichlorophenyl)pyrimidine-4,6-diol] | 23.5 µM |
| – | CCCCCCC(C)(C)c1nc(O)c(-c2cccc(C)c2)c(O)n1 [Compound 8j, 2-(2-Methyloctan-2-yl)-5-m-tolylpyrimidine-4,6-diol] | 55.4 µM |
| – | CC(C)(c1ccccc1)c1nc(O)c(-c2cc(Cl)cc(Cl)c2)c(O)n1 [Compound 8h, 5-(3,5-Dichlorophenyl)-2-(2-phenylpropan-2-yl)pyrimidine-4,6-diol] | 51.8 µM |
